Experimental data taken from ChEMBL document CHEMBL1201862, “PubChem BioAssay data set” (2004).
The source made the active and inactive calls.

Key:
Troponin, cardiac muscle = Troponin, cardiac muscle (Homo sapiens, UniProt P19429+P45379+P63316); test: Fluorescence-based biochemical high throughput dose response assay for activators of the calcium sensitivity of cardiac Regulated Thin Filaments (RTF). [Related pubchem assays (depositor defined):AID493008, AID493018, AID504382, AID504383]; assay type: protein-complex assay
[1] = target: T1, E3 ubiquitin-protein ligase XIAP (Homo sapiens, UniProt P98170); test: Counter Screen using XIAP-Bir3 for Chemical Antagonists of Bir1/2 domains of IAP-family anti-apoptotic proteins. [Related pubchem assays (depositor defined):AID1018, AID1449, AID1514, AID1638, AID1749, AID1750, AID488957, AID488963]
[2] = target: T1, E3 ubiquitin-protein ligase XIAP; test: XIAP antagonists, biochemical, IAP family, fluorescence polarization (AID 1018); assay type: functional
BJ [3] = test: cytotoxicity toward BJ-TERT-LT-ST fibroblasts, dose response, cell-based, RAS-independent, luminescence (AID 1935); assay type: functional; conditions: Homo sapiens;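 further: BJ fibroblasts immortalized with TERT plus LT and ST oncogenes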
[4] = target: T2, Microphthalmia-associated transcription factor (Homo sapiens, UniProt O75030); test: TRPM1 promoter luciferase signal decrease, dose response, MITF inhibitor project, cell-based, SK-MEL-5, cherry-picked, set 3 (AID 493073); assay type: functional
T2 sequence (O75030 whole entry): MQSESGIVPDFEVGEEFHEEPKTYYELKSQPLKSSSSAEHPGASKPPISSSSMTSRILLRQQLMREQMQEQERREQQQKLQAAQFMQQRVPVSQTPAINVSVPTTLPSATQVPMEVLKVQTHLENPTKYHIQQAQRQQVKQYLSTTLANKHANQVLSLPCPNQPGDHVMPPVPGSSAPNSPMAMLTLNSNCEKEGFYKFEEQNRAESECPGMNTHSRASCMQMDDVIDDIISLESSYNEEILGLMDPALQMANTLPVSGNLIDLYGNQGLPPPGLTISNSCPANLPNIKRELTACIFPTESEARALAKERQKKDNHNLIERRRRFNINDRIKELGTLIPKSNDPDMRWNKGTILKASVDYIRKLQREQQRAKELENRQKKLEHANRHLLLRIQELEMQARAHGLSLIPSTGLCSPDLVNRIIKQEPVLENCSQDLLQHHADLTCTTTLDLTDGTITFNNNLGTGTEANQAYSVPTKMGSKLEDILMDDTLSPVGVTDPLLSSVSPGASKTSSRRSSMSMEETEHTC

[5] = target: T3, Replicative DNA helicase DnaB (Mycobacterium tuberculosis, UniProt P9WMR3); test: DnaB intein splicing inhibitors, dose response, biochemical, cell-free fluorescence (AID 449749); assay type: functional
T3 sequence (P9WMR3 whole entry): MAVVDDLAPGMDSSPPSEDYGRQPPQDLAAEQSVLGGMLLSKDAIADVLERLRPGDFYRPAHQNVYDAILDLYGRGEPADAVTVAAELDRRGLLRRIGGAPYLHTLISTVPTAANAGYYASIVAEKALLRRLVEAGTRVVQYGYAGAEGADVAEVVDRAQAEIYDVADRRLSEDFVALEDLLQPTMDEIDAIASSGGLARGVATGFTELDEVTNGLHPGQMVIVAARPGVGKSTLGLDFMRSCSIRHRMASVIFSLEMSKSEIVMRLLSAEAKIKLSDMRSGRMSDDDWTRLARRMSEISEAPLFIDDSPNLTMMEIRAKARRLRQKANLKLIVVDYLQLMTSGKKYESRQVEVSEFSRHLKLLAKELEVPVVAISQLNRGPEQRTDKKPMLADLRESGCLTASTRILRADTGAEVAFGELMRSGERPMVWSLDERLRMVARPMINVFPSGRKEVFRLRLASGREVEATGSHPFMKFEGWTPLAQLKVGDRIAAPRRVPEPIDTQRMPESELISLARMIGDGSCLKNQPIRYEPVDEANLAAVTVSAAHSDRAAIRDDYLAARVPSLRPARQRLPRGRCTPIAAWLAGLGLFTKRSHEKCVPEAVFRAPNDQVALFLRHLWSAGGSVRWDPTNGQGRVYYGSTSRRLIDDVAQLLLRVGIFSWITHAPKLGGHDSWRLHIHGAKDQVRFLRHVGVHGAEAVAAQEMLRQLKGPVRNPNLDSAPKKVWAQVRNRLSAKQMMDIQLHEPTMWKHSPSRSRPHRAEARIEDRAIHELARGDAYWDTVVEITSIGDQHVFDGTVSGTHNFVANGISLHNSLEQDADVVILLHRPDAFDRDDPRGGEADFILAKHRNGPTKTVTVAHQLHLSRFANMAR

BJ [6] = test: cytotoxicity toward BJ-TERT fibroblasts, dose response, cell-based, RAS-independent, luminescence (AID 1933); assay type: functional; conditions: Homo sapiens
BJ [7] = test: cells; assay type: functional, cell-based; conditions: Homo sapiens
HEK293 [8] = test: NOD1 signaling inhibitors, primary screen, cell-based, luminescence, uHTS (AID 1578); assay type: functional; conditions: Homo sapiens
[9] = cytotoxicity toward DRD oncogenic fibroblasts, dose response, cell-based, non-viral oncogenic, luminescence (AID 1934); assay type: functional; conditions: Homo sapiens
Protein RecA = target: T4, Protein RecA (Mycobacterium tuberculosis, UniProt P9WHJ3); test: Fluorescence Cell-Free Homogeneous Dose Retest to Identify Inhibitors of RecA-Intein Splicing Activity. [Related pubchem assays (depositor defined):AID2097, AID2223, AID489010, AID492950]; assay type: functional
T4 sequence (P9WHJ3 whole entry): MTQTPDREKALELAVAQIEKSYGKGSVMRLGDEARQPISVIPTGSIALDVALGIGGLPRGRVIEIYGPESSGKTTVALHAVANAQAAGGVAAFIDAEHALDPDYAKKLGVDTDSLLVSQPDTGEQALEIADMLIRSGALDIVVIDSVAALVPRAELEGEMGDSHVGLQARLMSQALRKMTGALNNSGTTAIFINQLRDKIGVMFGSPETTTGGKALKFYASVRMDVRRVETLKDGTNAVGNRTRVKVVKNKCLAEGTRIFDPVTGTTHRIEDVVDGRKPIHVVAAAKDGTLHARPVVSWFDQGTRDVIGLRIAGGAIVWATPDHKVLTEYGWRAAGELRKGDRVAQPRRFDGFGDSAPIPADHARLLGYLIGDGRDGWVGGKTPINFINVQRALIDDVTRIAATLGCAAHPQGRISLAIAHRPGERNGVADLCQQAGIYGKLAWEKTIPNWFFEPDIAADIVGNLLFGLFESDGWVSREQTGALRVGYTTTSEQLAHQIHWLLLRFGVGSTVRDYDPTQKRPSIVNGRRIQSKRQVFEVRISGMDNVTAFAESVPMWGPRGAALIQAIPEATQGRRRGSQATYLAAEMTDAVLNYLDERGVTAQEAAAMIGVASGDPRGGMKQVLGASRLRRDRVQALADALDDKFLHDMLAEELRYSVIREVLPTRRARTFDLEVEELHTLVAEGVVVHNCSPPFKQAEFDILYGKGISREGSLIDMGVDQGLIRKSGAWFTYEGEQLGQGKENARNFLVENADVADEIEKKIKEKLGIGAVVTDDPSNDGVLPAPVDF

HEK293 [10] = test: cells; assay type: functional, cell-based; conditions: Homo sapiens
HEK293 [11] = test: NOD2 signaling inhibitors in MDP-stimulated cells, cell-based, uHTS, luminescence (AID 2001); assay type: functional; conditions: Homo sapiens
HEK293 [12] = test: cells; assay type: functional, cell-based; conditions: Homo sapiens; remark: listed apart in the source
[13] = target: Nucleotide-binding oligomerization domain-containing protein 2 (Homo sapiens, UniProt Q9HC29); test: NOD2 signaling inhibitors, cell-based, luminescence, uHTS, HEK293 (AID 1566); assay type: functional
HEK293 [14] = test: cells; assay type: functional, cell-based; conditions: Homo sapiens; remark: listed apart in the source
Insulin-degrading enzyme [15] = target: T5, Insulin-degrading enzyme (Homo sapiens, UniProt P14735); test: activators of recombinant IDE enzyme, dose response, counter-screen for IDE activator project, biochemical, fluorescence polarization (AID 588681)
T5 sequence (P14735 whole entry): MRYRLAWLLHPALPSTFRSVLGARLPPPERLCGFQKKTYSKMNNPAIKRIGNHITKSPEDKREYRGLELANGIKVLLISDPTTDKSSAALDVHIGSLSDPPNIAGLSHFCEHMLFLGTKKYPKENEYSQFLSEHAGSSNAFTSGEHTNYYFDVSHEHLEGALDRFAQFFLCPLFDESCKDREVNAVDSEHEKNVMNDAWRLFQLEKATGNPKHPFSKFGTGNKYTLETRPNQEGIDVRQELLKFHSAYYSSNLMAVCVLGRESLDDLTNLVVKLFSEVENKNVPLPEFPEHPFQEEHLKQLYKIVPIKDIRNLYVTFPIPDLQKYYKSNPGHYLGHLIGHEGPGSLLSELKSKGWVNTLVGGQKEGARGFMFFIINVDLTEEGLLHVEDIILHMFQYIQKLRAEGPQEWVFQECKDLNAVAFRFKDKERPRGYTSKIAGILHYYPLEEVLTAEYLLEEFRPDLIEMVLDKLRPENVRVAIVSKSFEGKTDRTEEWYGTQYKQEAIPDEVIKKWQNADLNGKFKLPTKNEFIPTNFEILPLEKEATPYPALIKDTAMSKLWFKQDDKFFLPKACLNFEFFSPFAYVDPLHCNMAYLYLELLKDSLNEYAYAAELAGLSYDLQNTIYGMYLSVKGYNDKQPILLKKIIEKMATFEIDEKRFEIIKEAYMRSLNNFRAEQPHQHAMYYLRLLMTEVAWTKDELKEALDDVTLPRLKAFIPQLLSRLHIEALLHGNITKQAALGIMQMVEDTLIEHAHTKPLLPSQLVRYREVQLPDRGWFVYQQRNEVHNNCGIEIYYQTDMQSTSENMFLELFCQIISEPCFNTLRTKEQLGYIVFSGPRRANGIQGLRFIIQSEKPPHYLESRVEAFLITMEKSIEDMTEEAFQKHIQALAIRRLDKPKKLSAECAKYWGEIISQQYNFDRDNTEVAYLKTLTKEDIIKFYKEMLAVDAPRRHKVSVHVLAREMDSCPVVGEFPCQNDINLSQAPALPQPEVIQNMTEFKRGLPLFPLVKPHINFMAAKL

INS1 = test: beta cell apoptosis inhibitors, cytokine rescue, dose response, luminescence, retest (AID 449756); assay type: functional, cell-based; conditions: Rattus norvegicus;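 further: cell death triggered by IL-1 beta plus TNF-alpha plus IFN-gamma mixture; protective hits raise ATP signal compared with cytokine alone wells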
HEK293 [16] = test: HEK cell cytotoxicity by LDH release, dose response, cytotoxicity control for IDE activator project, fluorescence, HEK cells (AID 588440); assay type: functional, cell-based; conditions: Homo sapiens;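 further: cytotoxicity by LDH release measuring loss of membrane integrity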
Streptokinase A = target: T6, Streptokinase A (Streptococcus pyogenes serotype M1, UniProt P10520); test: S. pyogenes streptokinase expression inhibitors, potency, dose response, plasminogen activation absorbance, OD405 (AID 1914); assay type: functional, Streptococcus pyogenes M1 GAS;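 further: secreted streptokinase activity via plasminogen activation per viability signal from cell pellet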
T6 sequence (P10520 whole entry): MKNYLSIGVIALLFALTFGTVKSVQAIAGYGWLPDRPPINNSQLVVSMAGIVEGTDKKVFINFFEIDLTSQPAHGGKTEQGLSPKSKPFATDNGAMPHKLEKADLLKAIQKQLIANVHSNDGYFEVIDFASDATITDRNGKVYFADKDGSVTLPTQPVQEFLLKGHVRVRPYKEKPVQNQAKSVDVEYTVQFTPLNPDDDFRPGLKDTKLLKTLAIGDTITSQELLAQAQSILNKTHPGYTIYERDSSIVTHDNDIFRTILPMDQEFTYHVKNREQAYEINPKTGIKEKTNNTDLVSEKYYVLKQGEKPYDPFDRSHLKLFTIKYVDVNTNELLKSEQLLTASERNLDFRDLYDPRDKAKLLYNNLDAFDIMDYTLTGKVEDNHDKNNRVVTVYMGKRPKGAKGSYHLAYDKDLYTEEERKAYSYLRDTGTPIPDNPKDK

[17] = test system: Streptococcus sp. 'group A'; test: growth inhibition of control SK(-) GAS strain, dose response, counter-screen for streptokinase expression inhibitor project, luminescence, kanamycin, BacTiterGlo, confirmation (AID 1900); assay type: functional, organism-based
Streptococcus = test: Group A Streptococcus viability loss, dose response, counter-screen for streptokinase expression inhibitor project, luminescence, BacTiterGlo (AID 1915); assay type: functional, organism-based;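 further: potency for reduction of bacterial viability or growth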
Beta-galactosidase = Beta-galactosidase (Escherichia coli, UniProt Q8VNN2); assay type: functional
Insulin-degrading enzyme [18] = target: T5, Insulin-degrading enzyme; test: activators of endogenous IDE in HEK cells, dose response, cell-based, fluorescence polarization (AID 588439); assay type: functional
HEK293 [19] = test: optical interference in Abeta FP readout, dose response, artefact control for IDE activator project, biochemical, fluorescence polarization (AID 588442); assay type: functional, cell-based; conditions: Homo sapiens
[20] = target: T7, Kappa-type opioid receptor (Homo sapiens, UniProt P41145); assay type: functional
[21] = target: T7, Kappa-type opioid receptor; assay type: functional; remark: listed apart in the source

CC(=O)Nc1cc(C(=O)NCc2ccco2)ccc1Sc1ccc(F)cc1
EC50 (Troponin, cardiac muscle): > 71.5 µM (inactive)

Cc1ccc(S(=O)(=O)c2cn(CC(=O)Nc3ccccc3)c3ccc(F)cc3c2=O)cc1
IC50 [1]: > 100 µM (inactive)
IC50 [2]: > 100 µM (not active)

COCCN(C(=O)CCl)C(C(=O)NC1CCCCC1)c1ccccc1C (configuration not stated)
EC50 (BJ [3]): > 150 µM (inconclusive)
AC50 [4]: 17.8 µM (active)
AC50 [5]: 25 µM (active)
EC50 (BJ [6]): 8.42 µM (active)
EC50 (BJ [7]): 14.4 µM (active)
EC50 (HEK293 [8]): 4.73 µM (active)
EC50 [9]: 10.5 µM (active)
EC50 (Protein RecA): 1.28 µM (active)
IC50 (HEK293 [10]): 6.54 µM (active)
IC50 (HEK293 [11]): 6.74 µM (active)
IC50 (HEK293 [12]): 14.9 µM (active)
EC50 [13]: > 20 µM (inactive)
IC50 (HEK293 [14]): > 20 µM (inactive)

CCOc1cc(/C=N/Nc2cc(C)nc(-n3nc(C)cc3C)n2)ccc1O
EC50 (Insulin-degrading enzyme [15]): > 54.7 µM (inactive)
AC50 (INS1): 0.862 µM (active)
IC50 (HEK293 [16]): 32.3 µM (inactive)
EC50 (Streptokinase A): > 150 µM (not active)
EC50 [17]: 1.67 µM (active)
EC50 (Streptococcus): 32.7 µM (active)
EC50 (Beta-galactosidase): > 31.5 µM (inactive)
EC50 (Insulin-degrading enzyme [18]): > 54.7 µM (inactive)
EC50 (HEK293 [19]): > 54.7 µM (inactive)
IC50 [20]: > 31.5 µM (inactive)
IC50 [21]: > 32 µM
